Measurements published in ChEMBL document CHEMBL1201862, “PubChem BioAssay data set” (2004).
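A five-concentration, 48-hour dose response in 96-well plates underlies each endpoint, interpolated linearly between surrounding concentrations. Here, GI50 denotes the concentration required for 50% inhibition of growth.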 Calls of active or inactive are those of the source. No stated cut-off is given here; in the data, active = GI50 up to about 1.1 µM and inactive = higher.

How the values were obtained:
Test in all cases: growth of human tumour cells (NCI), 48 h
CAKI-1 = test system: CAKI-1
NCI-H226 = test system: NCI-H226
RPMI-8226 = test system: RPMI-8226
SW-620 = test system: SW-620
UACC-257 = test system: UACC-257
U-251 = test system: U-251
OVCAR-3 = test system: OVCAR-3
EKVX = test system: EKVX
A549 = test system: A549
M14 = test system: M14
HCT-15 = test system: HCT-15
OVCAR-8 = test system: OVCAR-8
SR = test system: SR
SK-OV-3 = test system: SK-OV-3
RXF 393 = test system: RXF 393
SF-539 = test system: SF-539
DMS-114 = test system: DMS-114
NCI-H522 = test system: NCI-H522
HT-29 = test system: HT-29
CCRF-CEM = test system: CCRF-CEM

| SMILES | GI50 (CAKI-1) | GI50 (NCI-H226) | GI50 (RPMI-8226) | GI50 (SW-620) | GI50 (UACC-257) | GI50 (U-251) | GI50 (OVCAR-3) | GI50 (EKVX) | GI50 (A549) | GI50 (M14) | GI50 (HCT-15) [µM] | GI50 (OVCAR-8) | GI50 (SR) | GI50 (SK-OV-3) | GI50 (RXF 393) | GI50 (SF-539) | GI50 (DMS-114) | GI50 (NCI-H522) | GI50 (HT-29) | GI50 (CCRF-CEM) |
| --- | --- | --- | --- | --- | --- | --- | --- | --- | --- | --- | --- | --- | --- | --- | --- | --- | --- | --- | --- | --- |
| Nc1ccn([C@@H]2C[C@H](CO)[C@@H](O)[C@H]2O)c(=O)n1 | > 57.7 µM (inactive) | > 57.7 µM (inactive) | > 57.7 µM (inactive) | > 57.7 µM (inactive) | > 57.7 µM (inactive) | > 57.7 µM (inactive) | > 57.7 µM (inactive) | > 57.7 µM (inactive) | > 57.7 µM (inactive) | > 57.7 µM (inactive) | > 57.7 | > 57.7 µM (inactive) | > 57.7 µM (inactive) | > 57.7 µM (inactive) | > 57.7 µM (inactive) | > 57.7 µM (inactive) | > 57.7 µM (inactive) | > 57.7 µM (inactive) |  |  |
| CNS(=O)(=O)NNS(=O)(=O)c1ccc(Br)cc1 | > 100 µM (inactive) | > 100 µM (inactive) | > 100 µM (inactive) | > 100 µM (inactive) | > 100 µM (inactive) | 28.3 µM (inactive) |  | > 100 µM (inactive) | > 100 µM (inactive) | > 100 µM (inactive) | > 100 | > 100 µM (inactive) |  | > 100 µM (inactive) | > 100 µM (inactive) | > 100 µM (inactive) | > 100 µM (inactive) | > 100 µM (inactive) | > 100 µM (inactive) | > 100 µM (inactive) |
| CC1CCSC(N(C(=O)N(C)c2ccccc2)c2ccccc2)=N1 (stereo not given) | > 100 µM (inactive) | 74.1 µM (inactive) | > 100 µM (inactive) | > 100 µM (inactive) | > 100 µM (inactive) | > 100 µM (inactive) | > 100 µM (inactive) | > 100 µM (inactive) | > 100 µM (inactive) | > 100 µM (inactive) | > 100 | > 100 µM (inactive) |  | > 100 µM (inactive) | > 100 µM (inactive) | > 100 µM (inactive) | > 100 µM (inactive) | > 100 µM (inactive) | > 100 µM (inactive) | > 100 µM (inactive) |
| O=C1CC2CCN(C(=O)c3ccccc3)CC2CCN1 (stereo not given) |  | > 100 µM (inactive) | > 100 µM (inactive) | > 100 µM (inactive) | > 100 µM (inactive) | > 100 µM (inactive) | > 100 µM (inactive) | > 100 µM (inactive) | > 100 µM (inactive) | > 100 µM (inactive) | > 100 | > 100 µM (inactive) | > 100 µM (inactive) | > 100 µM (inactive) | > 100 µM (inactive) | > 100 µM (inactive) | > 100 µM (inactive) |  | > 100 µM (inactive) | > 100 µM (inactive) |
| O=C(NC12CC3CCC1CC(C3)C2)[C@@H]1CCCN1C(=O)OCc1ccccc1 (stereo not given in full) |  | 58.9 µM (inactive) | 36.5 µM (inactive) | 77.3 µM (inactive) | 34.7 µM (inactive) | 42.4 µM (inactive) | 89.5 µM (inactive) | 69.5 µM (inactive) | 50.4 µM (inactive) | 85.9 µM (inactive) | 44.2 | 50.5 µM (inactive) | 34.4 µM (inactive) | 65.3 µM (inactive) | 16.8 µM (inactive) | > 100 µM (inactive) | 50.4 µM (inactive) | 54.7 µM (inactive) | 36.5 µM (inactive) | 36.5 µM (inactive) |
| NC(=O)NC1C(C(=O)O)N(Cc2ccccc2)C(=O)N1Cc1ccccc1 (stereo not given) | > 100 µM (inactive) | > 100 µM (inactive) | > 100 µM (inactive) | > 100 µM (inactive) | > 100 µM (inactive) | > 100 µM (inactive) | > 100 µM (inactive) | > 100 µM (inactive) | > 100 µM (inactive) | > 100 µM (inactive) | > 100 | > 100 µM (inactive) | > 100 µM (inactive) | > 100 µM (inactive) |  | > 100 µM (inactive) | > 100 µM (inactive) | > 100 µM (inactive) | > 100 µM (inactive) | > 100 µM (inactive) |
| CC[C@@]1(OC(=O)CN(C)C)C(=O)OCc2c1cc1n(c2=O)Cc2cc3ccccc3nc2-1 | 0.0211 µM (active) | 0.0356 µM (active) | 0.181 µM (active) | 0.098 µM (active) | 0.11 µM (active) | 0.0118 µM (active) | 0.32 µM (active) | 0.863 µM (active) | 0.0365 µM (active) | 0.0525 µM (active) | 0.228 | 0.0596 µM (active) |  | 0.071 µM (active) | 0.139 µM (active) | 0.0111 µM (active) | 0.0259 µM (active) | 0.255 µM (active) | 0.129 µM (active) | 0.00256 µM (active) |
